Assay: xn = mol fraction of the nth substance listed

CNS(C)(=O)=O + c1ccncc1
303.15 K, 101.33 kPa
Conditions | viscosity [mPa·s]
x1 = 0.1002 | 1.039
x1 = 0.1975 | 1.31
x1 = 0.2809 | 1.61
x1 = 0.403 | 2.214
x1 = 0.5037 | 2.832
x1 = 0.5728 | 3.346
x1 = 0.7024 | 4.52
x1 = 0.8 | 5.676
x1 = 0.894 | 6.925

CCCNCCC + CCCOCCO
viscosity [mPa·s], 101.33 kPa
Conditions | 298.15 K | 308.15 K | 318.15 K
x2 = 0.0247 | 0.53 | 0.463 | 0.401
x2 = 0.075 | 0.592 | 0.511 | 0.435
x2 = 0.125 | 0.657 | 0.564 | 0.473
x2 = 0.1902 | 0.753 | 0.636 | 0.529
x2 = 0.2692 | 0.889 | 0.737 | 0.602
x2 = 0.3692 | 1.09 | 0.883 | 0.709
x2 = 0.4334 | 1.228 | 0.985 | 0.782
x2 = 0.476 | 1.329 | 1.058 | 0.833
x2 = 0.5289 | 1.463 | 1.153 | 0.903
x2 = 0.623 | 1.686 | 1.318 | 1.021
x2 = 0.723 | 1.94 | 1.507 | 1.157
x2 = 0.8063 | 2.136 | 1.656 | 1.269
x2 = 0.9114 | 2.293 | 1.78 | 1.362
x2 = 0.9598 | 2.322 | 1.846 | 1.413
x2 = 0.9731 | 2.333 | 1.863 | 1.428

O=C(Nc1ccccc1)c1ccccc1 + c1ccncc1
298.15 K, 101 kPa
Conditions | viscosity [mPa·s]
x1 = 0.0224 | 1.027
x1 = 0.0382 | 1.121
x1 = 0.05536 | 1.252

CCCNCCC + CCCCOCCO
viscosity [mPa·s], 100 kPa
Conditions | 298.15 K | 303.15 K | 308.15 K
x2 = 0.05 | 0.558 | 0.519 | 0.489
x2 = 0.1003 | 0.62 | 0.576 | 0.538
x2 = 0.1502 | 0.691 | 0.64 | 0.597
x2 = 0.1999 | 0.775 | 0.709 | 0.662
x2 = 0.2999 | 0.982 | 0.888 | 0.826
x2 = 0.3998 | 1.254 | 1.118 | 1.035
x2 = 0.5001 | 1.549 | 1.37 | 1.255
x2 = 0.5999 | 1.887 | 1.654 | 1.51
x2 = 0.6997 | 2.216 | 1.935 | 1.752
x2 = 0.7999 | 2.527 | 2.18 | 1.97
x2 = 0.8996 | 2.731 | 2.356 | 2.141
x2 = 0.9499 | 2.787 | 2.437 | 2.209

Cc1cccc([N+](=O)[O-])c1 + C1CCCCC1
303.15 K, 101.33 kPa
Conditions | viscosity [mPa·s]
x1 = 0.206 | 0.93
x1 = 0.38 | 1.03
x1 = 0.593 | 1.25
x1 = 0.801 | 1.54

CCOC(=O)c1ccccc1 + CC(=O)CC(C)C
viscosity [mPa·s], 101.33 kPa
Conditions | 293.15 K | 303.15 K
x2 = 0.0752 | 1.89 | 1.55
x2 = 0.1491 | 1.675 | 1.376
x2 = 0.2022 | 1.58 | 1.303
x2 = 0.3364 | 1.375 | 1.15
x2 = 0.4004 | 1.277 | 1.079
x2 = 0.5355 | 1.109 | 0.94
x2 = 0.6213 | 0.988 | 0.85
x2 = 0.7165 | 0.88 | 0.757
x2 = 0.7942 | 0.797 | 0.69
x2 = 0.8805 | 0.719 | 0.625
x2 = 0.9154 | 0.686 | 0.599
x2 = 0.9549 | 0.648 | 0.569

CCCCCCCCCCCCCCCCCCCCCCCC + CCCCCCCCCC
Conditions | viscosity [mPa·s]
313.2 K, 101.3 kPa, x2 = 0.8 | 1.48

CCCNCCC + CCO
viscosity [mPa·s], 101.33 kPa
Conditions | x1 = 0.0942 | x1 = 0.1946 | x1 = 0.3116 | x1 = 0.4115 | x1 = 0.5186 | x1 = 0.6176 | x1 = 0.7061 | x1 = 0.8005 | x1 = 0.9058
303.15 K | 1.05 | 1.048 | 0.9952 | 0.9229 | 0.8291 | 0.7485 | 0.6803 | 0.6208 | 0.56
313.15 K | 0.8212 | 0.7926 | 0.7448 | 0.6985 | 0.6485 | 0.5986 | 0.5562 | 0.51 | 0.4624

CCOC(=O)[C@@H](O)[C@H](O)C(=O)OCC + CCCCCCO
viscosity [mPa·s], 101 kPa
Conditions | x1 = 0.1001 | x1 = 0.2 | x1 = 0.3 | x1 = 0.4 | x1 = 0.5 | x1 = 0.5998 | x1 = 0.7001 | x1 = 0.8 | x1 = 0.8995
293.15 K | 6.18 | 7.861 | 10.57 | 14.54 | 20.8 | 30.68 | 43.54 | 72.93 | 122.9
298.15 K | 5.252 | 6.543 | 8.559 | 11.55 | 16.09 | 22.97 | 31.66 | 50.5 | 81.01
303.15 K | 4.449 | 5.484 | 7.046 | 9.307 | 12.59 | 17.51 | 23.57 | 36.18 | 55.71
308.15 K | 3.803 | 4.618 | 5.836 | 7.569 | 10.04 | 13.64 | 18 | 26.73 | 39.73
313.15 K | 3.251 | 3.893 | 4.85 | 6.204 | 8.087 | 10.78 | 13.99 | 20.22 | 29.19
318.15 K | 2.838 | 3.369 | 4.146 | 5.219 | 6.697 | 8.77 | 11.19 | 15.77 | 22.15
323.15 K | 2.506 | 2.946 | 3.581 | 4.451 | 5.632 | 7.262 | 9.138 | 12.59 | 17.3

CCCCCN + Cc1ccccc1
303.15 K, 101 kPa
Conditions | viscosity [mPa·s]
x2 = 0.1128 | 0.556
x2 = 0.2313 | 0.5323
x2 = 0.3808 | 0.5104
x2 = 0.4933 | 0.5008
x2 = 0.5377 | 0.4969
x2 = 0.6473 | 0.4932
x2 = 0.7388 | 0.4938
x2 = 0.8447 | 0.4984
x2 = 0.9229 | 0.5071

C1=CCCCC1 + C1COCCO1
303.15 K, 101 kPa
Conditions | viscosity [mPa·s]
x1 = 0.1067 | 0.932
x1 = 0.2617 | 0.833
x1 = 0.3551 | 0.789
x1 = 0.4267 | 0.754
x1 = 0.4787 | 0.734
x1 = 0.5637 | 0.702
x1 = 0.6603 | 0.668
x1 = 0.7706 | 0.634
x1 = 0.8678 | 0.606

CCCCCCCCCl + CCCCCCCCCCCC
298 K, 101.3 kPa
Conditions | viscosity [mPa·s]
x2 = 0.1064 | 1.143
x2 = 0.2068 | 1.151
x2 = 0.308 | 1.177
x2 = 0.4061 | 1.185
x2 = 0.5066 | 1.218
x2 = 0.6038 | 1.232
x2 = 0.6927 | 1.262
x2 = 0.7984 | 1.288
x2 = 0.8945 | 1.317

OC1CCCCCCC1 + OCCO
viscosity [mPa·s], 100 kPa
Conditions | 293.15 K | 298.15 K | 303.15 K | 308.15 K | 313.15 K | 318.15 K
x1 = 0.0094 | 20.68 | 16.94 | 13.8 | 11.25 | 9.588 | 7.888
x1 = 0.0394 | 21.39 | 17.13 | 13.91 | 11.23 | 9.61 | 7.891
x1 = 0.0577 | 21.55 | 17.25 | 13.99 | 11.26 | 9.627 | 7.892
x1 = 0.0877 | 21.87 | 17.42 | 14.13 | 11.32 | 9.649 | 7.894
x1 = 0.0999 | 21.97 | 17.51 | 14.16 | 11.34 | 9.664 | 7.895
x1 = 0.196 | 23.21 | 18.26 | 14.61 | 11.54 | 9.751 | 7.903
x1 = 0.3048 | 24.11 | 20.09 | 15.23 | 11.92 | 9.992 | 7.975
x1 = 0.3968 | 28.39 | 21.73 | 16.84 | 13.28 | 11.14 | 9.079
x1 = 0.4992 | 32.09 | 25.61 | 20.38 | 16.11 | 13.47 | 10.83
x1 = 0.5876 | 42.39 | 31.92 | 25.48 | 19.91 | 16.45 | 13.04
x1 = 0.6991 | 59.53 | 45.81 | 35.59 | 27 | 21.75 | 16.79
x1 = 0.7995 | 87.86 | 66.12 | 49.1 | 35.98 | 28.14 | 21.15
x1 = 0.8976 | 130 | 94 | 71 | 49.5 | 39 | 28

CCCNCCC + C1CCCCC1
viscosity [mPa·s], 101 kPa
Conditions | x1 = 0.01137 | x1 = 0.02125 | x1 = 0.03212 | x1 = 0.0414 | x1 = 0.05092 | x1 = 0.06219 | x1 = 0.07269 | x1 = 0.08114 | x1 = 0.09193
303.15 K | 0.8095 | 0.8028 | 0.7945 | 0.784 | 0.7745 | 0.7633 | 0.7535 | 0.7441 | 0.7334
313.15 K | 0.7072 | 0.6995 | 0.692 | 0.6827 | 0.6721 | 0.6596 | 0.649 | 0.6399 | 0.6296

Reference: the CheMixHub viscosity set
